For orientation: IC50 means the concentration that gives 50% inhibition.

Experiment [1] deals with Miapaca-2 cells. Description: MiaPaca-2 combination cell proliferation assay (1) with cobimetinib, 96-well. The class given is cell-based. The following applies: inhibition of cell proliferation, read-out: MiaPaca-2 Combo (1) IC50. On the procedure:
MiaPaca-2 Combination Cell proliferation Assay (1)
Miapaca-2 cells (catalog #CRL-1420) are obtained from the American Type Culture Collect (ATCC, Manassas, VA). Briefly, cells were grown in DMEM supplemented with 10% characterized fetal bovine serum (Invitrogen, Carlsbad, CA), 2.5% New Zealand sourced horse serum and 1% Penicillin/Streptomycin/L-Glutamine at 37° C., 5% CO2, and 95% humidity. Cells are expanded until reaching 70-95% confluency at which point they are subcultured or harvested for assay use. A serial dilution of test compound was dispensed into multiple 96-well black clear bottom plates in triplicate. A serial dilution of complete growth medium containing cobimetinib was prepared at twice the final concentration and 100 μL was dispensed across the test compound titration in triplicate. Three thousand cells are added per well in 100 μL complete growth medium in each 96-well plate. Plates are incubated for 67-72 hours at 37° C., 5% CO2, and 95% humidity. At the end of the incubation, 40 μL of a 440 μM solution of resazurin (Sigma, St. Louis, MO) in PBS is added to each well of the plate and plates are incubated for an additional 5-7 hours at 37° C., 5% CO2, and 95% humidity. Plates are read on a Synergy2 or equivalent reader (Biotek, Winooski VT) using an excitation of 540 nm and an emission of 600 nm. Drug synergy was assessed via BLISS analysis in the Combenefit software (Cancer Research UK Cambridge Institute, Cambridge, UK). Data is analyzed using Prism software (GraphPad, San Diego, CA) to calculate IC50 values. Shifts in test compound IC50 values are reported from top-constrained combination therapy curves.

The test system of experiment [2] is WM3629 cells. The experiment is described as follows: WM3629 cell proliferation assay (2), resazurin, 384-well. The format is cell-based. The following applies: inhibition of cell proliferation, 67-72 hours. On the procedure:
WM3629 Cell Proliferation Assay (2)
WM3629 cells (#WM3629-01-0001) are obtained from Rockland Immunochemicals Inc (Gilbertsville, PA). Briefly, cells were grown in MCDB 153 medium (Sigma, #M7403, St. Louis, MO) supplemented with 20% Leibovitz's L-15 (ThermoFisher #11415-064, Waltham, MA), 2% heat inactivated fetal bovine serum (ThermoFisher, #A3840001, Waltham, MA), 5 μg/mL Insulin (Bovine Pancreas) (Sigma, #I0516, St. Louis, MO), 1.68 mM Calcium Chloride (Sigma, #C-34006, St. Louis, MO) and 1% Penicillin/Streptomycin/L-Glutamine (ThermoFisher #10378016, Waltham, MA) at 37° C., 5% CO2, and 95% humidity. Cells are expanded until reaching 70-95% confluency at which point they are sub-cultured or harvested for assay use. Using the Beckman Coulter Echo 650, a serial dilution of test compound is dispensed into a 384-well black clear bottom plate in triplicate. One thousand one hundred twenty-five cells are added per well in 50 μL complete growth medium in the 384-well plate. Plates are incubated for 67-72 hours at 37° C., 5% CO2, and 95% humidity. […] Plates are read on a Synergy2 or equivalent reader (Biotek, Winooski VT) using an excitation of 540 nm and an emission of 600 nm. Data is analyzed using Prism software (GraphPad, San Diego, CA) to calculate IC50 values.
In general terms: Resazurin is reduced to fluorescent resorufin, in cell work by metabolically active cells.

For `Cc1cc(F)c(NC(=O)NCCC2(C)CC2)cc1-c1cc(OCCO)nc(-c2ccnc3[nH]ncc23)c1` [Example 87], in experiment [1], the IC50 lay in the range of 100 to 500 nM.

In the case of `CNC(=O)c1cc(-c2cc(-c3cc(NC(=O)N4CC[C@H](C(F)(F)F)C4)ccc3C)ccn2)ccn1` [Example 215], the IC50 in experiment [2] is 500 to 1000 nM.

On to `CNC(=O)c1cc(-c2cncc(-c3cc(NC(=O)N4CC[C@H](C(F)(F)F)C4)ccc3C)c2)ccn1` [Example 228], for which the IC50 in experiment [2] is 1000 to 10000 nM.

For the origin of these results see patent publication US20230357179A1, “RAF KINASE INHIBITORS AND METHODS OF USE THEREOF” (Deciphera Pharmaceuticals, LLC, priority 2021, published 2023).
